Our source for the viscosity and mass density values is the NIST ThermoML archive (doi:10.1021/je9008014).

For series [1] the following is noted: 101 kPa, Liquid; for mass density: Pycnometric method.
Series [2] can be described thus: xn = mol fraction of the nth substance listed. The note with it: 101 kPa, Liquid, x2 = 0.

± gives the expanded uncertainty stated by the source.

For `CCOCCOCCOCCO` [2-(2-(2-ethoxyethoxy)ethoxy)ethanol], the viscosity is 7.796 ± 0.16 mPa·s in series [1] (293.15 K); 6.739 ± 0.14 mPa·s in series [1] (298.15 K); 5.657 ± 0.12 mPa·s in series [1] (303.15 K); 4.185 ± 0.094 mPa·s in series [1] (313.15 K); 3.326 ± 0.076 mPa·s in series [1] (323.15 K); 2.627 ± 0.061 mPa·s in series [1] (333.15 K). Moreover, the mass density in series [1] (293.15 K) is on record as 1020.6 ± 2.1 kg/m3; in series [1] (298.15 K), 1016.3 ± 2.1 kg/m3; in series [1] (303.15 K), 1011.9 ± 2.1 kg/m3; in series [1] (308.15 K), 1008.1 ± 2.1 kg/m3; in series [1] (313.15 K), 1003.9 ± 2.1 kg/m3; in series [1] (323.15 K), 995.5 ± 2 kg/m3. For the same molecule, the mass density in series [1] (333.15 K) is given as 986.7 ± 2 kg/m3.
For the molecule `O` [water] + CCOCCOCCOCCO, the viscosity in series [2] (293.15 K) amounted to 1.005 ± 0.025 mPa·s; in series [2] (303.15 K), 0.8007 ± 0.02 mPa·s; in series [2] (313.15 K), 0.656 ± 0.017 mPa·s; in series [2] (323.15 K) it was 0.5494 ± 0.015 mPa·s; in series [2] (333.15 K), 0.4688 ± 0.013 mPa·s. For the same molecule, in series [2] (333.15 K, Pycnometric method), the mass density stood at 983.2 ± 2 kg/m3.
